This passage reports Emax and EC50 results from US8609669B2, “Potassium channel modulators” (AbbVie Inc., priority 2010, dated 2013).

pEC50: −log10 of the molar value. Some results are limits rather than exact numbers.

The target of this assay is T1, KCNQ 2/3 channels (HEK293 cells stably expressing human KCNQ2 and KCNQ3 subunits) (Homo sapiens, UniProt O43525+O43526).
T1 construct: expressed in transfected cells; host or cells: HEK293
The experiment in a line: KCNQ2/3 channel activation, thallium flux FLIPR assay (BTC-AM dye). The assay is classed as cell-based. The following applies: for Emax: HEK293, maximum response relative to response of retigabine at 10 μM (set at 100%), read-out: Max. %; for pEC50: HEK293 cells expressing human KCNQ2 and KCNQ3, FLIPR thallium flux. As to the method:
The following example describes the assay that can be used to identify compounds that activate KCNQ 2/3 channels.
HEK293 cells stably expressing human KCNQ2 and KCNQ3 subunits were seeded in 96-well, black-walled, clear-bottomed, poly-D-lysine coated plates (BD Biosciences, Bedford, Mass.) at a density of 1×10^5 cells per well 24 hours before the assay. On the assay day, BTC-AM dye (Invitrogen, Carlsbad, Calif.) was loaded into the cells by replacing the cell culture medium with 100 μL/well of 4 μM dye in DPBS. Dye loading was allowed to proceed for 2 hours at room temperature and then cells were washed twice in 100 μL/well of assay buffer (in mM: 10 HEPES pH 7.3, 5 glucose, 140 Na-gluconate, 2.5 K-gluconate, 3.6 Ca-gluconate, 2 MgSO4, 0.1 Ouabain) to remove unloaded dye. Cells were incubated in 50 μL of assay buffer before loading onto a FLIPR system (Molecular Devices, Sunnyvale, Calif.). Various concentrations of compounds to be assayed were added to the cells in 50 μL of assay buffer and incubated for 4 minutes. The fluorescence signal was initiated by adding 100 μL of assay buffer containing 6 mM TlNO3 and 10 mM K2SO4. Fluors were excited using the 488-nm line of an argon laser and emission was filtered using a 540±30 nm bandpass filter. Fluorescent signals were recorded for 3 minutes. Responses over baseline values were plotted versus concentrations of test compounds to obtain an EC50 value. The maximum response for each test compound was determined relative to the response produced at 10 μM by retigabine. The maximum response of retigabine at 10 μM was set at 100%.

Usually pEC50 stands for the EC50 on a negative log10 scale, so that one unit is a factor of ten. Higher therefore signals a low EC50. In the case of `Cc1ccnc2c(-c3ccc(F)cc3)c(NC(=O)Cc3ccc(F)cc3)nn12` [Example 28, 2-(4-fluorophenyl)-N-[3-(4-fluorophenyl)-7-methylpyrazolo[1,5-a]pyrimidin-2-yl]acetamide], the Emax came out at 120% and the negative logarithm of the EC50 (pEC50) is 5.00 to 6.00.

`Cc1cc(C)n2nc(NC(=O)CCc3ccccc3)c(-c3ccc(F)cc3)c2n1` [Example 29, N-[3-(4-fluorophenyl)-5,7-dimethylpyrazolo[1,5-a]pyrimidin-2-yl]-3-phenylpropanamide]: the Emax is 166% and the pEC50 was 6.30 to 7.00.

In the case of `COc1cccc(CC(=O)Nc2nn3c(C)cc(C)nc3c2-c2ccc(F)c(C)c2)c1` [Example 32, N-[3-(4-fluoro-3-methylphenyl)-5,7-dimethylpyrazolo[1,5-a]pyrimidin-2-yl]-2-(3-methoxyphenyl)acetamide], the Emax is 173% and the pEC50 was 6.30 to 7.00.

`Cc1cc(C)n2nc(NC(=O)CC3CCCCC3)c(-c3ccc(F)c(C)c3)c2n1` [Example 34, 2-cyclohexyl-N-[3-(4-fluoro-3-methylphenyl)-5,7-dimethylpyrazolo[1,5-a]pyrimidin-2-yl]acetamide]: the Emax came out at 166% and the pEC50 is above 7.00.

With `COc1ccc(CC(=O)Nc2nn3c(C)ccnc3c2CC(C)(C)C)cc1` [Example 36, N-[3-(2,2-dimethylpropyl)-7-methylpyrazolo[1,5-a]pyrimidin-2-yl]-2-(4-methoxyphenyl)acetamide], the Emax amounted to 160% and the pEC50 was below 5.00.

`Cc1ccnc2c(CC(C)(C)C)c(NC(=O)CCC3CCCCC3)nn12` [Example 37, 3-cyclohexyl-N-[3-(2,2-dimethylpropyl)-7-methylpyrazolo[1,5-a]pyrimidin-2-yl]propanamide]: the Emax came out at 166% and the pEC50 was above 7.00.

In the case of `COc1cccc(CC(=O)Nc2nn3c(C)ccnc3c2CC(C)(C)C)c1` [Example 38, N-[3-(2,2-dimethylpropyl)-7-methylpyrazolo[1,5-a]pyrimidin-2-yl]-2-(3-methoxyphenyl)acetamide], the Emax was 163% and the pEC50 is below 5.00.

`Cc1ccnc2c(-c3ccc(Cl)cc3)c(NC(=O)CC(C)(C)C)nn12` [Example 40, N-[3-(4-chlorophenyl)-7-methylpyrazolo[1,5-a]pyrimidin-2-yl]-3,3-dimethylbutanamide]: the Emax was 139% and the pEC50 was 5.00 to 6.00.

As for `COc1cccc(CC(=O)Nc2nn3c(C)ccnc3c2-c2ccc(Cl)cc2)c1` [Example 41, N-[3-(4-chlorophenyl)-7-methylpyrazolo[1,5-a]pyrimidin-2-yl]-2-(3-methoxyphenyl)acetamide], the Emax is 136% and the pEC50 is 5.00 to 6.00.

As to `Cc1cc(C)n2nc(NC(=O)CC3CCCCC3)c(-c3ccc(Cl)cc3)c2n1` [Example 42, N-[3-(4-chlorophenyl)-5,7-dimethylpyrazolo[1,5-a]pyrimidin-2-yl]-2-cyclohexylacetamide], the Emax was 142% and the pEC50 is 6.30 to 7.00.

`Cc1cc(C)n2nc(NC(=O)CCC3CCCC3)c(-c3ccc(Cl)cc3)c2n1` [Example 43, N-[3-(4-chlorophenyl)-5,7-dimethylpyrazolo[1,5-a]pyrimidin-2-yl]-3-cyclopentylpropanamide]: the Emax is 157% and the pEC50 was above 7.00.

Turning to `Cc1cnc2c(-c3ccc(Cl)c(C)c3)c(NC(=O)CCc3ccccc3)nn2c1` [Example 44, N-[3-(4-chloro-3-methylphenyl)-6-methylpyrazolo[1,5-a]pyrimidin-2-yl]-3-phenylpropanamide], the Emax is 73% and the pEC50 is 5.00 to 6.00.

For `Cc1cc(-c2c(NC(=O)Cc3ccc(F)cc3)nn3cccnc23)ccc1Cl` [Example 45, N-[3-(4-chloro-3-methylphenyl)pyrazolo[1,5-a]pyrimidin-2-yl]-2-(4-fluorophenyl)acetamide], the Emax was 95% and the pEC50 is below 5.00.

As to `Cc1cc(-c2c(NC(=O)CCC3CCCC3)nn3c(C)ccnc23)ccc1Cl` [Example 46, N-[3-(4-chloro-3-methylphenyl)-7-methylpyrazolo[1,5-a]pyrimidin-2-yl]-3-cyclopentylpropanamide], the Emax was found to be 117% and the pEC50 is 6.30 to 7.00.

For the compound `Cc1cc(C)n2nc(NC(=O)CCc3ccccc3)c(-c3ccc(Cl)c(C)c3)c2n1` [Example 47, N-[3-(4-chloro-3-methylphenyl)-5,7-dimethylpyrazolo[1,5-a]pyrimidin-2-yl]-3-phenylpropanamide], the Emax worked out at 125% and the pEC50 was 6.30 to 7.00.

Consider `Cc1cc(C)n2nc(NC(=O)CCC3CCCCC3)c(-c3ccc(Cl)c(C)c3)c2n1` [Example 48, N-[3-(4-chloro-3-methylphenyl)-5,7-dimethylpyrazolo[1,5-a]pyrimidin-2-yl]-3-cyclohexylpropanamide], for which the Emax was found to be 68% and the pEC50 was 5.00 to 6.00.

Regarding `Cc1ccnc2c(-c3cccc(Cl)c3)c(NC(=O)CCc3ccccc3)nn12` [Example 49, N-[3-(3-chlorophenyl)-7-methylpyrazolo[1,5-a]pyrimidin-2-yl]-3-phenylpropanamide], the Emax was 123% and the pEC50 is 5.00 to 6.00.

`COc1ccc(CC(=O)Nc2nn3cc(C)cnc3c2-c2cccc(Cl)c2)cc1` [Example 50, N-[3-(3-chlorophenyl)-6-methylpyrazolo[1,5-a]pyrimidin-2-yl]-2-(4-methoxyphenyl)acetamide]: the Emax came out at 100% and the pEC50 was 5.00 to 6.00.

As for `Cc1cnc2c(-c3cccc(Cl)c3)c(NC(=O)CC(C)(C)C)nn2c1` [Example 51, N-[3-(3-chlorophenyl)-6-methylpyrazolo[1,5-a]pyrimidin-2-yl]-3,3-dimethylbutanamide], the Emax amounted to 73% and the pEC50 was 5.00 to 6.00.

Take `Cc1cc(C)n2nc(NC(=O)CC3CCCCC3)c(-c3cccc(Cl)c3)c2n1` [Example 52, N-[3-(3-chlorophenyl)-5,7-dimethylpyrazolo[1,5-a]pyrimidin-2-yl]-2-cyclohexylacetamide]: the Emax was 156% and the pEC50 was 6.30 to 7.00.

With `Cc1cc(C)n2nc(NC(=O)CC3CCCC3)c(-c3cccc(Cl)c3)c2n1` [Example 53, N-[3-(3-chlorophenyl)-5,7-dimethylpyrazolo[1,5-a]pyrimidin-2-yl]-2-cyclopentylacetamide], the Emax came to 143% and the pEC50 was above 7.00.

Consider `COc1cccc(CC(=O)Nc2nn3c(C)cc(C)nc3c2-c2cccc(Cl)c2)c1` [Example 54, N-[3-(3-chlorophenyl)-5,7-dimethylpyrazolo[1,5-a]pyrimidin-2-yl]-2-(3-methoxyphenyl)acetamide], for which the Emax was 67% and the pEC50 was 5.00 to 6.00.

As for `O=C(CCC1CCCC1)Nc1nn2cccnc2c1-c1cccc(Cl)c1` [Example 56, N-[3-(3-chlorophenyl)pyrazolo[1,5-a]pyrimidin-2-yl]-3-cyclopentylpropanamide], the Emax stood at 98% and the pEC50 was 6.30 to 7.00.

`Cc1cnc2c(-c3ccc(C(F)(F)F)cc3)c(NC(=O)CCc3ccccc3)nn2c1` [Example 59, N-{6-methyl-3-[4-(trifluoromethyl)phenyl]pyrazolo[1,5-a]pyrimidin-2-yl}-3-phenylpropanamide]: the Emax turned out to be 123% and the pEC50 is 6.30 to 7.00.

Regarding `Cc1cc(C)n2nc(NC(=O)CCC3CCCC3)c(-c3ccc(C(F)(F)F)cc3)c2n1` [Example 61, 3-cyclopentyl-N-{5,7-dimethyl-3-[4-(trifluoromethyl)phenyl]pyrazolo[1,5-a]pyrimidin-2-yl}propanamide], the Emax came out at 152% and the pEC50 is 6.30 to 7.00.

As to `Cc1cnc2c(-c3cccc(C(F)(F)F)c3)c(NC(=O)CC(C)(C)C)nn2c1` [Example 63, 3,3-dimethyl-N-{6-methyl-3-[3-(trifluoromethyl)phenyl]pyrazolo[1,5-a]pyrimidin-2-yl}butanamide], the Emax is 125% and the pEC50 is 6.30 to 7.00.

Regarding `O=C(CC1CCCC1)Nc1nn2cccnc2c1-c1cccc(C(F)(F)F)c1` [Example 64, 2-cyclopentyl-N-{3-[3-(trifluoromethyl)phenyl]pyrazolo[1,5-a]pyrimidin-2-yl}acetamide], the Emax is 113% and the pEC50 was below 5.00.

In the case of `Cc1ccnc2c(-c3cccc(C(F)(F)F)c3)c(NC(=O)CCC3CCCCC3)nn12` [Example 65, 3-cyclohexyl-N-{7-methyl-3-[3-(trifluoromethyl)phenyl]pyrazolo[1,5-a]pyrimidin-2-yl}propanamide], the Emax worked out at 56% and the pEC50 is 6.30 to 7.00.

Regarding `Cc1ccnc2c(-c3cccc(C(F)(F)F)c3)c(NC(=O)Cc3ccc(F)cc3)nn12` [Example 67, 2-(4-fluorophenyl)-N-{7-methyl-3-[3-(trifluoromethyl)phenyl]pyrazolo[1,5-a]pyrimidin-2-yl}acetamide], the Emax stood at 117% and the pEC50 is 6.30 to 7.00.
